Like-named read-outs stand apart in the source and are kept apart here. *1 amine or outer side, *2 acyl side, *3 side chain or, on linkers, in order; H or OH if unused. Where a SMILES comes first, the peptide text is derived from it. Bridges are numbered along the chain shown (N, C = ends). [ ]: non-standard residue; d: D form. The star is where a group is joined. X5 = NC(=O)[C@H](CCCCNC(=O)CN1CCN(CC(=O)O)CCN(CC(=O)O)CCN(CC(=O)O)CC1)NC(=O)CCC(=O)NCCCOCCOCCOCCCN*; DOTA(Ga) = O=C1CN2CCN3CCN(CC(=O)*)CCN(CC2)CC(=O)[O][Ga]([O]1)[O]C(=O)C3; X3 = O=C(O)CN1CCN(CC(=O)O)CCN(CC(=O)NCCCOCCOCCOCCCN*)CCN(CC(=O)O)CC1; NH(1-deoxy-D-glucityl) = OC[C@@H](O)[C@@H](O)[C@H](O)[C@@H](O)CN*; Trp(5-Cl) = N[C@@H](Cc1c[nH]c2ccc(Cl)cc12)C(=O)O; Pyridine(2,6-diCH2) = c1cc(C[*:1])nc(C[*:2])c1; Trp(7-aza) = N[C@@H](Cc1c[nH]c2ncccc12)C(=O)O; Phe(2-Cl) = N[C@@H](Cc1ccccc1Cl)C(=O)O; mXylylene = c1cc(C[*:1])cc(C[*:2])c1; Glutaryl = O=C(CCCC(=O)[*:2])[*:1]; X7 = c1cc(CSCCN[*:2])cc(C[*:1])c1; Hyp = O=C(O)[C@@H]1C[C@@H](O)CN1; X1 = O=C(CN1CCC(N[*:1])CC1)[*:2]; NMeE = CN[C@@H](CCC(=O)O)C(=O)O; NMeD = CN[C@@H](CC(=O)O)C(=O)O; Suc = O=C(CCC(=O)[*:2])[*:1]; Api = NC1(C(=O)O)CCNCC1; Thp = NC1(C(=O)O)CCOCC1; Aib = CC(C)(N)C(=O)O
Target: T1, GIPR (CHO-K1-hGIPR cells) (Homo sapiens, UniProt P48546)
T1 construct: host or cells: CHO-K1
T1 sequence (P48546 22-466): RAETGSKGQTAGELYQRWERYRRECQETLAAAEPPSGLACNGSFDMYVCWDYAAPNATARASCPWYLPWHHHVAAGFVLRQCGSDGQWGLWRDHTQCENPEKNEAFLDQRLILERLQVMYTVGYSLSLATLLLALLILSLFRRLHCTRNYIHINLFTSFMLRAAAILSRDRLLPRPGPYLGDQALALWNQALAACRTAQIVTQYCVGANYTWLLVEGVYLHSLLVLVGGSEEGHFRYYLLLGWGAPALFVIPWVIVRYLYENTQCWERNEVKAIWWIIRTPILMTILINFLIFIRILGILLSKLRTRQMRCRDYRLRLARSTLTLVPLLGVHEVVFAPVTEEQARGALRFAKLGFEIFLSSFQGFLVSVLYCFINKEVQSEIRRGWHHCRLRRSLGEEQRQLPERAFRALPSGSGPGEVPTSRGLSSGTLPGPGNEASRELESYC
Assay: FACS binding assay
Conditions: read-out: pIC50 Category (converted)
Method in brief: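 Read-out: flow cytometric median fluorescence intensity, APC/Cy5 channel, plotted vs peptide conc.; 4PL fit → EC50/pEC50 or IC50/pIC50. Cells: CHO-K1-hGIPR, Accutase-detached, 500.000/mL in PBS + 1% FCS. Detection: APC-streptavidin 1 μg/mL, 30 min, on ice.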

[1] = competition with 20 nM GIP-057, 4° C. for 1 hour
[2] = competition with 20 nM GIP-057, 4° C., 1 hour

Row | Compound | IC50 [1] [nM] | IC50 [2] [nM]
1 | CC[C@H](C)[C@@H]1NC(=O)[C@H](CC(C)C)NC(=O)C2(CCOCC2)NC(=O)[C@@H](NC(=O)[C@@H](CC(C)C)NC(=O)[C@H](CCC(=O)O)NC(=O)[C@@H]2C[C@@H](O)CN2C(=O)[C@H](Cc2c[nH]c3ccc(Cl)cc23)NC(=O)[C@H](Cc2ccccc2Cl)NC(=O)[C@H](CC(=O)O)NC(C)=O)CSCc2cccc(n2)CSC[C@@H](C(N)=O)NC1=O [GIP-262, Ac-Asp-Ocf-5Clw-Hyp-Glu-leu-[Cys(2Lut)-Thp-Leu-Ile-Cys]-NH2] (Ac-D[Phe(2-Cl)][Trp(5-Cl)][Hyp]E[dL]C[Thp]LIC-NH2; linker 7-11 via Pyridine(2,6-diCH2)) | 10 to 79.4 | –
2 | CC[C@H](C)[C@@H]1NC(=O)[C@H](CC(C)C)NC(=O)C(C)(C)NC(=O)[C@@H](NC(=O)[C@H](CC(C)C)NC(=O)[C@H](CCC(=O)O)NC(=O)[C@@H]2CCCN2C(=O)[C@H](Cc2c[nH]c3ccccc23)NC(=O)[C@H](Cc2c[nH]c3ccccc23)NC(=O)[C@H](CC(=O)O)N(C)C(=O)CCC(=O)NCCCOCCOCCOCCCNC(=O)CN2CCN(CC(=O)O)CCN(CC(=O)O)CCN(CC(=O)O)CC2)CSCc2cccc(c2)CSCCNC1=O [GIP-130, DOTA-Ttds-Nmd-Trp-Trp-Pro-Glu-Leu-[Cys(3MeBn)-Aib-Leu-Ile-AET]] ({X3-Suc}-[NMeD]WWPELC[Aib]LI; linker 7-C via X7) | – | 10 to 79.4
3 | CC[C@H](C)[C@@H]1NC(=O)[C@H](CC(C)C)NC(=O)C2(CCN(C(=O)CN3CCN4CCN5CCN(CC3)CC(=O)[O][Ga]([O]C(=O)C5)[O]C(=O)C4)CC2)NC(=O)[C@@H](NC(=O)[C@@H](CC(C)C)NC(=O)[C@H](CCC(=O)O)NC(=O)[C@@H]2C[C@@H](O)CN2C(=O)[C@H](Cc2c[nH]c3ccc(Cl)cc23)NC(=O)[C@H](Cc2c[nH]c3ccccc23)NC(=O)[C@H](CC(=O)O)NC(=O)CCCC(=O)NC[C@H](O)[C@@H](O)[C@H](O)[C@H](O)CO)CSCc2cccc(n2)CSC[C@@H](C(=O)NC2CCN(CC(=O)N[C@H](CCC(=O)NC[C@H](O)[C@@H](O)[C@H](O)[C@H](O)CO)C(N)=O)CC2)NC1=O [GIP-070, AGLU-Glutar-Asp-Trp-5Clw-Hyp-Glu-leu-[Cys(2Lut)-Apc(GaDOTA)-Leu-Ile-Cys]-APAc-glu(AGLU)-NH2] ({NH(1-deoxy-D-glucityl)-Glutaryl}-DW[Trp(5-Cl)][Hyp]E[dL]C[Api](DOTA(Ga))LIC[X1][dE](NH(1-deoxy-D-glucityl))-NH2; linker 7-11 via Pyridine(2,6-diCH2)) | – | < 10
4 | CC[C@H](C)[C@@H]1NC(=O)[C@H](CC(C)C)NC(=O)C(C)(C)NC(=O)[C@@H](NC(=O)[C@H](CC(C)C)NC(=O)[C@H](CCC(=O)O)N(C)C(=O)[C@@H]2CCCN2C(=O)[C@H](Cc2c[nH]c3ccccc23)NC(=O)[C@H](Cc2c[nH]c3ccccc23)NC(=O)[C@H](CC(=O)O)NC(C)=O)CSCc2cccc(c2)CSC[C@@H](C(=O)NCCCOCCOCCOCCCNC(=O)CCC(=O)N[C@@H](CCCCNC(=O)CN2CCN(CC(=O)O)CCN(CC(=O)O)CCN(CC(=O)O)CC2)C(N)=O)NC1=O [GIP-274, Ac-Asp-Trp-Trp-Pro-Nme-Leu-[Cys(3MeBn)-Aib-Leu-Ile-Cys]-Ttds-Lys(DOTA)-NH2] (Ac-DWWP[NMeE]LC[Aib]LIC-X5; linker 7-11 via mXylylene) | 100 to 794 | –

Further lines, with some results ahead:

Row | IC50 [1] [nM] | Compound | IC50 [2] [nM]
5 | 10 to 79.4 | CC[C@H](C)[C@@H]1NC(=O)[C@H](CC(C)C)NC(=O)C2(CCOCC2)NC(=O)[C@@H](NC(=O)[C@@H](CC(C)C)NC(=O)[C@H](CCC(=O)O)NC(=O)[C@@H]2C[C@@H](O)CN2C(=O)[C@H](Cc2c[nH]c3ncccc23)NC(=O)[C@H](Cc2c[nH]c3ccccc23)NC(=O)[C@H](CC(=O)O)NC(C)=O)CSCc2cccc(n2)CSC[C@@H](C(N)=O)NC1=O [GIP-267, Ac-Asp-Trp-7Nw-Hyp-Glu-leu-[Cys(2Lut)-Thp-Leu-Ile-Cys]-NH2] (Ac-DW[Trp(7-aza)][Hyp]E[dL]C[Thp]LIC-NH2; linker 7-11 via Pyridine(2,6-diCH2)) | –
6 | > 1000 | CC[C@H](C)[C@@H]1NC(=O)[C@H](CC(C)C)NC(=O)[C@H](C)NC(=O)[C@@H](NC(=O)[C@H](CC(C)C)NC(=O)[C@H](CCC(=O)O)NC(=O)[C@@H]2CCCN2C(=O)[C@H](Cc2c[nH]c3ccccc23)NC(C)=O)CSCc2cccc(c2)CSC[C@@H](C(N)=O)NC1=O [GIP-325, Ac-Trp-Pro-Glu-Leu-[Cys(3MeBn)-Ala-Leu-Ile-Cys]-NH2] (Ac-WPELCALIC-NH2; linker 5-9 via mXylylene) | –
